What was measured:
DSS-induced IBD in mice = assay: Preventive and therapeutic effects on DSS-induced inflammatory bowel disease (IBD) in mice; format: in vivo; conditions: for colon length as % of normal control values / Total Disease Activity Index (DAI) Scores / total DAI scores / Colon length: 40 mg/kg p.o. q.d.; for colon length as % of normal control values: model group 77.32%; for body weight loss percentage: day 10, 40 mg/kg p.o. q.d., female C57BL/6 mice, 2% DSS; for Total Disease Activity Index (DAI) Scores / total DAI scores: final day; for Total Disease Activity Index (DAI) Scores / Colon length: mean ± S.E.M.; for Total Disease Activity Index (DAI) Scores: model group 14.50; for total DAI scores: model group 14.5 points; for Colon length: last experimental day, normal control 6.44, model group 4.98
From the text: This study evaluated the preventive and therapeutic effects of the compounds of the present invention on dextran sulfate sodium (DSS)-induced IBD in mice. The experiment utilized female C57BL/6 mice (purchased from Beijing Vital River Laboratory Animal Technology Co., Ltd.) to establish the DSS-induced IBD model.
Female C57BL/6 mice (6-8 weeks old) were purchased from Beijing Vital River Laboratory Animal Technology Co., Ltd. Upon arrival, the mice were housed in individually ventilated cages (IVC) under specific pathogen-free (SPF) conditions, with 2-6 mice per cage. They were provided with ad libitum access to food and water and maintained at a temperature of 20-26° C. (68-79° F.), relative humidity of 40-70%, and a 12-hour light/dark cycle (lights on from 08:00 to 20:00). After a 7-day acclimatization period, experiments were initiated.
Test compounds and ABX464 vehicle: 5% DMSO+10% Solutol HS-15+85% saline, stored at 4° C.
DSS solution: 2% (w/v) DSS in autoclaved drinking water, prepared fresh before use.
The mice were randomly allocated into eight groups according to body weight: normal control group (negative control), model group (DSS group), ABX464 treatment group, test compound groups (administered with Compounds 19, 43, 59, 84, and 89 of the present invention at 40 mg/kg, p.o., q.d.)
Following a 7-day acclimation period, the model group and compound treatment groups were administered 2% DSS aqueous solution ad libitum for 7 days starting from Day 0, followed by 3 days of normal water consumption. All groups received daily oral gavage of their respective vehicles or test compounds for 10 consecutive days beginning on the trial commencement date. During the experimental period, body weight changes in mice were monitored and recorded daily, the Disease Activity Index (DAI) was scored each day with the total score calculated on the final day, and on the last experimental day all animals were humanely euthanized followed by colon collection and length measurement.
The experimental data were expressed as mean±standard error of the mean (mean±S.E.M.). Statistical analysis was performed using GraphPad Prism or SPSS software with appropriate statistical methods. A value of P<0.05 was considered statistically significant.

[1] = In vivo pharmacokinetic evaluation in mice; conditions: mouse; male ICR mice, po, 10 mg/kg, plasma
Description: The compound was administered orally (p.o.) at a dose of 10 mg/kg. The test formulation was prepared at a final concentration of 0.4 mg/mL in 5% DMSO+45% PEG400+50% aqueous solution or suspension. Male ICR mice (9 per group) were sampled at three discontinuous time points (n=3 mice/time point). Approximately 80 μL of blood was collected via orbital or cardiac puncture at 5 min, 15 min, 30 min, 1 h, 2 h, 4 h, 8 h, and 24 h post-dose. All whole blood samples were collected in EDTA K2-containing tubes. After centrifugation at 4° C. (4000 rpm, 10 min), plasma was collected and stored below −40° C. for subsequent analysis. Compound concentrations in plasma were determined by liquid chromatography-tandem mass spectrometry (LC-MS/MS), and pharmacokinetic parameters were derived from the plasma concentration-time curves.

miR-124 = assay: Induction of miR-124 expression in PBMC cells (qPCR); format: cell-based; conditions: Homo sapiens, 72 h, 0.1 μM compound, human PBMCs stimulated with PMA/ionomycin, miR-191 reference gene, read-out: miR-124 expression, Fold change vs DMSO
Outline: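 Human PBMCs (3.0*10^6 cells/well) were stimulated with PMA 10 ng/mL plus ionomycin 200 ng/mL for 48 h, then given compound at 0.1 μM final for 72 h. miR-124 was measured by RT-qPCR against miR-191 as reference gene. Expression is relative to DMSO control.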

Row | Compound | colon length as % of normal control values (DSS-induced IBD in mice) [%] | body weight loss percentage (DSS-induced IBD in mice) [%] | Total Disease Activity Index (DAI) Scores (DSS-induced IBD in mice) | total DAI scores (DSS-induced IBD in mice) [points] | Colon length (DSS-induced IBD in mice) [cm] | AUC(0-t) [1] [ng·h/mL] | Cmax [1] [ng/mL] | Tmax [1] [h] | half-life [1] [h] | fold induction at 0.1 µM (miR-124) | preventive and therapeutic effects on DSS-induced IBD (body weight, DAI, colon length) relative to ABX464 (DSS-induced IBD in mice; further experiments, figures not given)
1 | Fc1cc(Nc2nc3c(F)cccc3n3ccnc23)ccc1OC(F)(F)F [Compound 43] | 99.69 | 2.22 | 10.03 | 10.03 | 6.42 | 1680 | 348 | 2 | 3.87 | 18.9 | –
2 | FC(F)(F)c1ccc(NC2=Nc3c(Cl)cc(Cl)cc3N3CCN=C23)cc1 [Compound 89] | 99.07 | 1.85 | 10.33 | 10.33 | 6.38 | 1860 | 454 | 2 | 3.46 | 24.3 | –
3 | FC(F)(F)Oc1ccc(Nc2nc3cc(Cl)ccc3n3ccnc23)cc1 [Compound B7, 7-chloro-N-(4-(trifluoromethoxy)phenyl)imidazolo [1,2-a]quinoxalin-4-amine] | – | – | – | – | – | 3240 | 378 | 2 | 3.05 | 32 | outperformed the reference drug ABX464

Reference: patent US20260232662A1, “MIR-124 INDUCER, AND PREPARATION METHOD THEREFOR AND USE THEREOF” (NANJING SYNNOCARE PHARMACEUTICAL TECHNOLOGY CO., LTD., priority 2023, published 2026)
